Reference: patent US20220402948A1, “EGFR INHIBITOR, COMPOSITION AND PREPARATION METHOD THEREFOR” (BETTA PHARMACEUTICALS CO., LTD., priority 2019, published 2022)
Where two headings read alike, the source gives them in different places.

Experiments:
[1] = molecular target: EGFRΔ19del/T790M/C797S (Homo sapiens, UniProt P00533, T790M/C797S, form not given); assay: EGFR Δ19del/T790M/C797S kinase test (mobility variation analysis, Caliper EZ Reader); type: biochemical; conditions: kinase enzymatic activity, Table 1
Chain of EGFRΔ19del/T790M/C797S (P00533 with tags, fused parts or gaps DEL746-750/T790M/C797S, form open): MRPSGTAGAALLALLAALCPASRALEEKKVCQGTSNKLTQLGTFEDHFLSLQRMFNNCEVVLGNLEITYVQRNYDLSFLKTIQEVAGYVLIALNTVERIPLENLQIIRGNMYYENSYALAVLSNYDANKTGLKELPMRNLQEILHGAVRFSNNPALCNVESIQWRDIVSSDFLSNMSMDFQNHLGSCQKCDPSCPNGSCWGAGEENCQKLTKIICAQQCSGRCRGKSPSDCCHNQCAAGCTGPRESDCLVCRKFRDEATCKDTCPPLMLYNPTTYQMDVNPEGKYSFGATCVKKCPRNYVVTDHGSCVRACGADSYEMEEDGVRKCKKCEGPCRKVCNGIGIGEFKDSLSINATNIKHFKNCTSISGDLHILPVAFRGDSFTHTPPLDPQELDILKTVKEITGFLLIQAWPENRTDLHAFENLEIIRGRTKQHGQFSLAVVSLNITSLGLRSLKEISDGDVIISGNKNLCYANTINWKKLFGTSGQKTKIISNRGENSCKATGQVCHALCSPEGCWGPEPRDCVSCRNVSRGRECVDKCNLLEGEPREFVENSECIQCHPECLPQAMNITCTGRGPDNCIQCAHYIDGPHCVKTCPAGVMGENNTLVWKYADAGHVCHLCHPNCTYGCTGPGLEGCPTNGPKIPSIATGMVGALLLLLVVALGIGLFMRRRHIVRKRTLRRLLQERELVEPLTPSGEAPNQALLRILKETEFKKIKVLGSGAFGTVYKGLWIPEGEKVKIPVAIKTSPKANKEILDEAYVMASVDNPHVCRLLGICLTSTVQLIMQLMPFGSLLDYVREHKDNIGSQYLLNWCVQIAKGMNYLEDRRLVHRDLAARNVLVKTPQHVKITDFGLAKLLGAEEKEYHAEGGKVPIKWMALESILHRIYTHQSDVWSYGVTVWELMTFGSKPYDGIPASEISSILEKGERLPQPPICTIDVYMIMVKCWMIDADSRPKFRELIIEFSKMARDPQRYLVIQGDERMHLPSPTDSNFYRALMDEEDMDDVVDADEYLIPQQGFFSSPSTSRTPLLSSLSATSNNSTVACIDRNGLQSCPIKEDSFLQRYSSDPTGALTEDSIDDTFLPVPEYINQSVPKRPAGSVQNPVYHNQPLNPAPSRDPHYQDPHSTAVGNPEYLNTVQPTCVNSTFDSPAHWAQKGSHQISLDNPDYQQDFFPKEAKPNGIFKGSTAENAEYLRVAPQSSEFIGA
Outline: (§1)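 Read-out is substrate-to-product conversion by mobility shift, stopped after incubation at room temperature with ATP and substrate, following a 10-minute room-temperature compound–enzyme pre-incubation. IC50 obtained by four-parameter variable-slope fitting of inhibition normalized between enzyme-free and uninhibited controls.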

[2] = molecular target: EGFR WT (Homo sapiens, UniProt P00533); assay: EGFR WT kinase test (mobility variation analysis, Caliper EZ Reader); type: biochemical; conditions: kinase enzymatic activity, Table 1
Chain of EGFR WT (P00533 25-1210): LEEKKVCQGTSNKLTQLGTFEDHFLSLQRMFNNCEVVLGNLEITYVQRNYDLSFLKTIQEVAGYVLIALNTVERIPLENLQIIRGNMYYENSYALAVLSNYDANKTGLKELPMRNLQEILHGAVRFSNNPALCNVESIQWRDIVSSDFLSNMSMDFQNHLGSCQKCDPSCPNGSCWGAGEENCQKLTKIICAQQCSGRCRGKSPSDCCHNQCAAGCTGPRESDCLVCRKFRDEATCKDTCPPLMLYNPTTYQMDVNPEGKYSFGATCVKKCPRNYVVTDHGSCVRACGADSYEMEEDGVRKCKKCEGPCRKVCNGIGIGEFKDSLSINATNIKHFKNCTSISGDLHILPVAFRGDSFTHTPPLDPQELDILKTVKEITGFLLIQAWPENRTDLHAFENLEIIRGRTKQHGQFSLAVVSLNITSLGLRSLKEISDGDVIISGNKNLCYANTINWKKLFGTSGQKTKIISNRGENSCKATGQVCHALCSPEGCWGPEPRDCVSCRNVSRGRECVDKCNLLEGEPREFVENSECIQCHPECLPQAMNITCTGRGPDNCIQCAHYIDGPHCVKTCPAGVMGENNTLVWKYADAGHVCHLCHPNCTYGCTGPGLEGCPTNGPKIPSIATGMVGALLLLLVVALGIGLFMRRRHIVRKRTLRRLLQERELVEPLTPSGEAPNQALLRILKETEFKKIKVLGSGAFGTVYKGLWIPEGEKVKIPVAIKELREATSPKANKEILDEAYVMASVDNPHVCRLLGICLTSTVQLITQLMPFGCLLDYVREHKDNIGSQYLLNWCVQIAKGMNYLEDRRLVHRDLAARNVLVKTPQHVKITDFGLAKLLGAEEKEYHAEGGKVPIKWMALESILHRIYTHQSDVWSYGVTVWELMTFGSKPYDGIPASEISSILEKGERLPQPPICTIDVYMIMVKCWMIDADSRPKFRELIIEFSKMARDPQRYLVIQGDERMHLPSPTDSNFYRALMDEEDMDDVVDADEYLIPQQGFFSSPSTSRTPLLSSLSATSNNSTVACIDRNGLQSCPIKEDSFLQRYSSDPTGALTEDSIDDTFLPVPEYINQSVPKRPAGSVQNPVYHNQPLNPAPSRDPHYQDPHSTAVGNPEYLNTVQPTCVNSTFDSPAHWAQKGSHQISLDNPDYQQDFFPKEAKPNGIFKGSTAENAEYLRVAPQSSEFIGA
Outline: as §1

[3] = molecular target: IGF1R (Homo sapiens, UniProt P08069); assay: IGF1R kinase test (mobility variation analysis, Caliper EZ Reader); type: biochemical; conditions: kinase enzymatic activity, Table 1; read-out: EGFR IGF1R IC50
Outline: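 Mobility-shift readout of substrate conversion, normalised to positive (no compound) and negative (no kinase) controls, gives % inhibition and IC50 by four-parameter fit. Compounds, 3-fold dilutions over 10 concentrations starting at 3000 nM, preincubated 10 min with kinase before ATP/substrate start; room temperature.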

[4] = molecular target: Ba/F3 cells with EGFR Δ19del/T790M/C797S mutation gene stably overexpressed (Homo sapiens, UniProt P00533, T790M/C797S, cells depend on it, form not given); assay: Ba/F3-Δ19del/T790M/C797S cell proliferation assay (CellTiter Glo, 72 hours); type: cell-based; conditions: Table 2, read-out: EGFR Δ19del/T790M/C797S IC50
Chain of Ba/F3 cells with EGFR Δ19del/T790M/C797S mutation gene stably overexpressed (P00533 with tags, fused parts or gaps DEL746-750/T790M/C797S, form open): as the sequence (P00533 with tags, fused parts or gaps DEL746-750/T790M/C797S, form open) above
Outline: (§2)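 Ba/F3 cells stably overexpressing wild-type EGFR or EGFR Δ19del/T790M/C797S were seeded at 2000 cells/well and incubated 72 h with compound. Viability was read by CellTiter-Glo luminescence, and IC50 came from a four-parameter logistic fit of signal against log concentration.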

[5] = molecular target: Ba/F3-EGFR wild-type cell line (Homo sapiens, UniProt P00533); assay: Ba/F3-EGFR wild-type cell proliferation assay (CellTiter Glo, 72 hours); type: cell-based; conditions: Table 2, read-out: EGFR WT IC50
Chain of Ba/F3-EGFR wild-type cell line (P00533 whole entry, change not shown): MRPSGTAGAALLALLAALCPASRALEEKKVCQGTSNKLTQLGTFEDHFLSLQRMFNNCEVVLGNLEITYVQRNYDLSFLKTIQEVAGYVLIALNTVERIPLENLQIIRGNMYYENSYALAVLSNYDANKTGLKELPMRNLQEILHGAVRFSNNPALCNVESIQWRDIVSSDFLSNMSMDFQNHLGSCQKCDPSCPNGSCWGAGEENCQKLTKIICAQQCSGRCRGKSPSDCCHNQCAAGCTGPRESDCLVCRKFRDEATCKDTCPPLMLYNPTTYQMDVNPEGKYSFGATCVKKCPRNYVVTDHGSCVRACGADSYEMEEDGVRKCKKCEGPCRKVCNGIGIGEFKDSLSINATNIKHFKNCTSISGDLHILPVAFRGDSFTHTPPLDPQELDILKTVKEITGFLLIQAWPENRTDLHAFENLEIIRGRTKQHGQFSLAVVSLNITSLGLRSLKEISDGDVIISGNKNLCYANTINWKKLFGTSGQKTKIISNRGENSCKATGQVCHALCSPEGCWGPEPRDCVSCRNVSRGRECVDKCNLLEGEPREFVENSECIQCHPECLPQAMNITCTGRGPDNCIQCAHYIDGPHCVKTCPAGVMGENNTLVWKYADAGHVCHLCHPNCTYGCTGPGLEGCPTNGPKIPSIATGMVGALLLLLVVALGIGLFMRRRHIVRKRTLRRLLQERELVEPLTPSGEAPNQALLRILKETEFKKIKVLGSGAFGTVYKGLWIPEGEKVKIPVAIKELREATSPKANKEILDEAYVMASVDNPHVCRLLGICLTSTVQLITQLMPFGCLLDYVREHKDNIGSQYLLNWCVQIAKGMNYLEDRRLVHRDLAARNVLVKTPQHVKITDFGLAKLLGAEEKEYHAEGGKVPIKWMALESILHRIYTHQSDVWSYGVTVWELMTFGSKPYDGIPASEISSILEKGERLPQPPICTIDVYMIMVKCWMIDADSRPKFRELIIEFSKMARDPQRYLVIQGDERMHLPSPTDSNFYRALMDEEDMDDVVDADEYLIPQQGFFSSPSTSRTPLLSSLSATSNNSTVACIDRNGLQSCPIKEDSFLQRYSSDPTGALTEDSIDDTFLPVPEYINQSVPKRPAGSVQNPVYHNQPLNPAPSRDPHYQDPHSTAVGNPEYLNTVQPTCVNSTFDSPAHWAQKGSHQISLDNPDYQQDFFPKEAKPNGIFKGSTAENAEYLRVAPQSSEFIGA
Outline: as §2

[6] = tested on: A431; assay: A431 cell proliferation assay (CellTiter Glo, 72 hours); type: cell-based; conditions: cell proliferation, A431, 72 hours, Table 2, read-out: A431 IC50
Outline: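 Luminescence (CellTiter-Glo) after 72 h treatment gives viability, fitted by nonlinear regression to yield IC50. Cells seeded at 2000 per well; nine 3-fold concentrations from 1000 nM, DMSO final 0.1% (0.5% for certain compounds).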

## C#Cc1cnn(-c2ccc(Nc3nc(Nc4cc(CC)c(N5CCC(N6CCN(C)CC6)CC5)cc4OC)ncc3Br)c(P(C)(C)=O)c2)c1 [Compound K-009, (2-((5-Bromo-2-((5-ethyl-2-methoxy-4-(4-(4-methylpiperazin-1-yl)piperidin-1-yl)phenyl)amino)pyrimidin-4-yl)amino)-5-(4-ethynyl-1H-pyrazol-1-yl)phenyl)dimethylphosphine oxide]
[1]
  IC50: 0.23 nM
[2]
  IC50: 21 nM
[3]
  IC50: 165 nM
[4]
  GI50: 16.4 nM
[5]
  GI50: 268 nM
[6]; Homo sapiens, A-431, 72 h
  IC50: 2460 nM

## CCc1cc(Nc2ncc(Br)c(Nc3ccc(-c4ncccn4)cc3P(C)(C)=O)n2)c(OC)cc1N1CCC(N2CCN(C)CC2)CC1 [Compound 26, (2-((5-Bromo-2-((5-ethyl-2-methoxy-4-(4-(4-methylpiperazin-1-yl)piperidin-1-yl)phenyl)amino)pyrimidin-4-yl)amino)-5-(pyrimidin-2-yl)phenyl)dimethylphosphine oxide]
[1]
  IC50: 0.4 nM
[2]
  IC50: 18.9 nM
[3]
  IC50: 102 nM
[4]
  GI50: 5.1 nM
[5]
  GI50: 162 nM
[6]; Homo sapiens, A-431, 72 h
  IC50: 1030 nM

## CCc1cc(Nc2ncc(Br)c(Nc3ccc(-c4cnn(C)c4)c(OC)c3P(C)(C)=O)n2)c(OC)cc1N1CCC(N2CCN(C)CC2)CC1 [Compound K-041, (6-((5-Bromo-2-((5-ethyl-2-methoxy-4-(4-(4-methylpiperazin-1-yl)piperidin-1-yl)phenyl)amino)pyrimidin-4-yl)amino)-2-methoxy-3-(1-methyl-1H-pyrazol-4-yl)phenyl)dimethylphosphine oxide]
[1]
  IC50: 0.4 nM
[2]
  IC50: 12.2 nM
[3]
  IC50: 14.7 nM
[4]
  GI50: 15.8 nM
[5]
  GI50: 147 nM
[6]; Homo sapiens, A-431, 72 h
  IC50: 317 nM

## C#Cc1cnc(-c2ccc(Nc3nc(Nc4cc(C)c(N5CCC(N6CCN(C)CC6)CC5)cc4OC)ncc3Br)c(P(C)(C)=O)c2)cn1 [Compound K-011]
[1]
  IC50: 0.45 nM
[2]
  IC50: 28 nM
[3]
  IC50: 104 nM
[4]
  GI50: 7.4 nM
[5]
  GI50: 81.8 nM
[6]; Homo sapiens, A-431, 72 h
  IC50: 4450 nM

## CCc1cc(Nc2ncc(Br)c(Nc3ccc(-c4ccc(OC)cn4)cc3P(C)(C)=O)n2)c(OC)cc1N1CCC(N2CCN(C)CC2)CC1 [Compound K-074, (2-((5-Bromo-2-((5-ethyl-2-methoxy-4-(4-(4-methylpiperazin-1-yl)piperidin-1-yl)phenyl)amino)pyrimidin-4-yl)amino)-5-(5-methoxypyridin-2-yl)phenyl)dimethylphosphine oxide]
[1]
  IC50: 0.4 nM
[2]
  IC50: 35.8 nM
[3]
  IC50: 253 nM
[4]
  GI50: 4.2 nM
[5]
  GI50: 267 nM
[6]; Homo sapiens, A-431, 72 h
  IC50: 2760 nM

## CCc1cc(Nc2ncc(Br)c(Nc3ccc(-c4ccccc4F)cc3P(C)(C)=O)n2)c(OC)cc1N1CCC(N2CCOCC2)CC1 [Compound K-048]
[1]
  IC50: 1 nM
[2]
  IC50: 77.2 nM
[3]
  IC50: 587 nM
[4]
  GI50: 12.9 nM
[5]
  GI50: 156 nM
[6]; Homo sapiens, A-431, 72 h
  IC50: 23100 nM

## COc1cnn(-c2ccc(Nc3nc(Nc4cc(OC)c(N5CCN(C)CC5)cc4C)ncc3Br)c(P(C)(C)=O)c2)c1 [Compound K-028, (2-((5-Bromo-2-((5-methoxy-2-methyl-4-(4-methylpiperazin-1-yl)phenyl)amino)pyrimidin-4-yl)amino)-5-(4-methoxy-1H-pyrazol-1-yl)phenyl)-dimethylphosphine oxide]
[1]
  IC50: 0.1 nM
[2]
  IC50: 26 nM
[3]
  IC50: 39.1 nM
[4]
  GI50: 5.7 nM
[5]
  GI50: 226 nM
[6]; Homo sapiens, A-431, 72 h
  IC50: 1240 nM

## CCOc1cnc(-c2ccc(Nc3nc(Nc4cc(CC)c(N5CCC(N6CCN(C)CC6)CC5)cc4OC)ncc3Br)c(P(C)(C)=O)c2)nc1 [Compound 75]
[1]
  IC50: 0.5 nM
[2]
  IC50: 16 nM
[3]
  IC50: 91 nM
[4]
  GI50: 16.8 nM
[5]
  GI50: 1010 nM
[6]; Homo sapiens, A-431, 72 h
  IC50: > 10000 nM

## CCc1cc(Nc2ncc(Br)c(Nc3ccc(-c4ccc(C)cn4)cc3P(C)(C)=O)n2)c(OC)cc1N1CCC(N2CCN(C)CC2)CC1 [Compound K-071, (2-((5-Bromo-2-((5-ethyl-2-methoxy-4-(4-(4-methylpiperazin-1-yl)piperidin-1-yl)phenyl)amino)pyrimidin-4-yl)amino)-5-(5-methylpyridin-2-yl)phenyl)dimethylphosphine oxide]
[1]
  IC50: 0.3 nM
[2]
  IC50: 29.4 nM
[3]
  IC50: 180 nM
[4]
  GI50: 21 nM
[5]
  GI50: 218 nM
[6]
  IC50: 2540 nM

## CCc1cc(Nc2ncc(Br)c(Nc3ccc(-c4cnn(C)c4)cc3P(C)(C)=O)n2)c(OC)cc1N1CCC(N2CCOCC2)CC1 [Compound K-042, (2-((5-Bromo-2-((5-ethyl-2-methoxy-4-(4-morpholinopiperidin-1-vi)phenyl)amino)pyrimidin-4-yl)amino)-5-(1-methyl-1-pyrazol-4-yl)phenyl)-dimethylphosphine oxide]
[1]
  IC50: 0.4 nM
[2]
  IC50: 15.9 nM
[3]
  IC50: 71 nM
[4]
  GI50: 4.3 nM
[5]
  GI50: 206 nM
[6]; Homo sapiens, A-431, 72 h
  IC50: 815 nM

## CCc1cc(Nc2ncc(Br)c(Nc3ccc(-c4cnn(C)n4)cc3P(C)(C)=O)n2)c(OC)cc1N1CCC(N2CCN(C)CC2)CC1 [Compound 8, (2-((5-Bromo-2-((5-ethyl-2-methoxy-4-(4(4-methylpiperazin-1-yl)piperidin-1-yl)phenyl)amino)pyrimidin-4-yl)amino)-5-(2-methyl-2H-1,2,3-triazol-4-yl)phenyl)dimethylphosphine oxide]
[1]
  IC50: 0.4 nM
[2]
  IC50: 10.8 nM
[3]
  IC50: 67.9 nM
[4]
  GI50: 3.3 nM
[5]
  GI50: 181 nM
[6]; Homo sapiens, A-431, 72 h
  IC50: 773 nM

## COc1cc(Nc2ncc(Br)c(Nc3ccc(-c4cnn(C)n4)c(F)c3P(C)(C)=O)n2)c(C)cc1N1CCC(N2CCN(C)CC2)CC1 [Compound K-012, (6-((5-Bromo-2-((5-methoxy-2-methyl-4-(4-(4-methylpiperazin-1-yl)piperidin-1-yl)phenyl)amino)pyrimidin-4-yl)amino)-2-fluoro-3-(2-methyl-2H-1,2,3-triazol-4-yl)phenyl)diniethylphosphine oxide]
[1]
  IC50: 0.19 nM
[2]
  IC50: 12 nM
[3]
  IC50: 35 nM
[4]
  GI50: 2.6 nM
[5]
  GI50: 46 nM
[6]; Homo sapiens, A-431, 72 h
  IC50: 5220 nM

## COc1cc(N2CCN(C)CC2)c(C)cc1Nc1ncc(Br)c(Nc2ccc(-c3nccs3)cc2P(C)(C)=O)n1 [Compound K-029, (2-((5-Bromo-2-((2-methoxy-5-methyl-4-(4-methylpiperazin-1-yl)phenyl)amino)pyrimidin-4-yl)amino)-5-(thiazol-2-yl)phenyl)dimethylphosphine oxide]
[1]
  IC50: 0.3 nM
[2]
  IC50: 60.6 nM
[3]
  IC50: 91 nM
[4]
  GI50: 15.2 nM
[5]
  GI50: 52.1 nM
[6]; Homo sapiens, A-431, 72 h
  IC50: 3180 nM

## C#Cc1cncc(-c2ccc(Nc3nc(Nc4cc(CC)c(N5CCC(N6CCN(C)CC6)CC5)cc4OC)ncc3Br)c(P(C)(C)=O)c2)n1 [Compound K-013, (2-((5-Bromo-2-((5-ethyl-2-methoxy-4-(4-(4-methylpiperazin-1-yl)piperidin-1-yl)phenyl)amino)pyrimidin-4-yl)amino)-5-(6-ethynylpyrazin-2-yl)phenyl)dimethylphosphine oxide]
[1]
  IC50: 0.3 nM
[2]
  IC50: 22.1 nM
[3]
  IC50: 166 nM
[4]
  GI50: 15.2 nM
[5]
  GI50: 70 nM
[6]; Homo sapiens, A-431, 72 h
  IC50: 1420 nM

## CCc1cnc(-c2ccc(Nc3nc(Nc4cc(CC)c(N5CCC(N6CCN(C)CC6)CC5)cc4OC)ncc3Br)c(P(C)(C)=O)c2)nc1 [Compound 70]
[1]
  IC50: 0.9 nM
[2]
  IC50: 38.6 nM
[3]
  IC50: 246 nM
[4]
  GI50: 9 nM
[5]
  GI50: 407 nM
[6]; Homo sapiens, A-431, 72 h
  IC50: 6290 nM

## CCc1cc(Nc2ncc(Br)c(Nc3ccc(-c4nc(Cl)cs4)cc3P(C)(C)=O)n2)c(OC)cc1N1CCC(N2CCN(C)CC2)CC1 [Compound K-073, (2-((5-Bromo-2-((5-ethyl-2-methoxy-4-(4-(4-methylpiperazin-1-yl)piperidin-1-yl)phenyl)amino)pyrimidin-4-yl)amino)-5-(4-chlorothiazol-2-yl)phenyl)dimethylphosphine oxide]
[1]
  IC50: 0.3 nM
[2]
  IC50: 22.2 nM
[3]
  IC50: 127 nM
[4]
  GI50: 27.7 nM
[5]
  GI50: 407 nM
[6]; Homo sapiens, A-431, 72 h
  IC50: 1510 nM

## CCc1cc(Nc2ncc(Br)c(Nc3ccc(-c4ncn(C)n4)cc3P(C)(C)=O)n2)c(OC)cc1N1CCC(N2CCN(C)CC2)CC1 [Compound 31, (2-((5-Bromo-2-((5-ethyl-2-methoxy-4-(4-(4-methylpiperazin-1-yl)piperidin-1-yl)phenyl)amino)pyrimidin-4-yl)amino)-5-(1-methyl-1H-1,2,4-triazol-3-yl)phenyl)dimethylphosphine oxide]
[1]
  IC50: 0.3 nM
[2]
  IC50: 27.6 nM
[3]
  IC50: 179 nM
[4]
  GI50: 20.8 nM
[5]
  GI50: 559 nM
[6]; Homo sapiens, A-431, 72 h
  IC50: 1030 nM
